Experimental data reported in patent US20220256821A1, “ZEBRAFISH DELETION AND COMPOUND MUTANTS AND USES THEREOF” (The General Hospital Corporation, priority 2019, published 2022).

Tests used:
Type in all cases: in vivo, human
[1] = tested on: OVCAR-5 (EPCAM+) cancer cells; test: BiTE therapy of engrafted tumor in zebrafish; settings: rag2null/null; Il2rga-/- zebrafish, co-administered with CD8+ T cells after 7 days of engraftment
From the text: (§1) To investigate if the rag2^null/null; Il2rga−/− animals can be used in the context of evaluating BiTE therapy efficiency, GFP-expressing OVCAR-5 (EPCAM+) cancer cells were first engrafted into mutant zebrafish. Following 7 days of engraftment, CD8+ T cells were co-administered with a control EPCAM antibody, a non-specific CD19 targeting BiTE (blinatumomab), or an EPCAM targeting BiTE (solitomab). […] In a similar experiment, animals engrafted with CD19-expressing leukemia cell line (K562-CD19) cells were killed off by coadministration of CD8+ T cells and blinatumomab (FIG. 4A-FIG. 4F).
(§2) Human cancer cells were grown to 90% confluence in a T75 cell culture flask, trypsinized, counted and resuspended at 2.5×10^7 cells/ml in Matrigel. Clondronate liposomes were added to the injection mix to inhibit early macrophage ingestion of engrafted cells over the first 7 days. […] Human CD8+ T cells, CMV-primed T cells and Car T cells were grown in 24 well plate at a density of 1×10^6 cells/ml, harvested, counted and resuspended at 5×10^7 cells/ml in T cell media. […] Cancer cell engraftment was assessed using epifluorescence whole animal microscopy (Olympus MVX10), with average GFP intensity measured using ImageJ. Growth was measured in relation to GFP intensity observed immediately after IP injection or by individual count of GFP+ cells over time. […]

[2] = tested on: CD19-expressing leukemia cell line (K562-CD19); test: BiTE therapy of engrafted leukemia cells in zebrafish; settings: rag2null/null; Il2rga-/- zebrafish, coadministration of CD8+ T cells
From the text: as §1, §2

[3] = tested on: OVCAR-5 (zipCaspase3) cells; test: Live confocal imaging of BiTE-induced apoptosis with zipCaspase 3 reporter in zebrafish; settings: administered with T cells, live confocal microscopy
Procedure: Next, it was investigated whether the rag2^null/null; Il2rga−/− zebrafish are able to be used to directly visualize tumor cell killing at single cell resolution following BiTE therapy in vivo. To do so, OVCAR-5 ovarian cancer cells were engineered to express a zipCaspase 3 construct, where live tumor cells constitutively express mCherry, but express zipGFP only when undergoing apoptosis (FIG. 7A-FIG. 7E).
Imaging of peri-ocular transplanted cells was performed using an inverted LSM 710 confocal microscope. Engrafted zebrafish were anesthetized using […] tricaine and placed into a 12-mm glass-bottom dish for imaging. Serial z-stack imaging was carried out using a 10× objective (NA 0.45). In vivo direct visualization of Car T-cell interaction with tumor cells, cell apoptosis with zipGFP caspase 3 reporter, and visualization of therapy target specificity was carried out by serial z-stack imaging using 405 nm (emission […]), 488 nm (emission=493-586 nm) and 546 nm laser (emission=575-703 nm). Animals were imaged at 6 dpt prior to administration of immunotherapy. […] Quantification of distance between tumor cells and Car T-cells was analysed using distance between surface and spot plugin. Images were manually annotated from Imaris files (n=100 cells per timepoint analyzed from n≥3 animals) and quantified using the Fisher's Exact Test or T-test.

Substance	overall tumor growth [1]	killing of engrafted cells [2]	cell apoptosis quantified in vivo (zipGFP) [3]
blinatumomab	did not alter overall OVCAR-5 tumor growth	killed off	
solitomab	undergo cell killing and suppress tumor growth		significant induction of cell apoptosis
